Results taken from patent EP2929883A1, “Pyrazole derivatives as dihydroorotate dehydrogenase (DHODH) inhibitors” (INSTITUT PASTEUR, priority 2014, dated 2015).
Converted amounts (≈) assume the structure as drawn.

Tests used:
[1] = test system: measles virus; assay: microbe, parasite or virus in culture; conditions: Measles morbillivirus; for IC50: HEK-293T, read-out: IC50 on the measles virus
[2] = test system: Jurkat cells; assay: inhibition of the proliferation of Jurkat cells (CellTiter-Glo); assay type: cell-based; conditions: Homo sapiens, 72 h, read-out: IC50, Jurkat cells proliferation
Protocol: As a control, cells were treated with DMSO alone. At t=0 and after 72 hours of culture, the number of living cells was determined using the CellTiter-Glo reagent. The inhibition of cellular proliferation is expressed as a percentage relative to DMSO-treated control wells. Presented results correspond to the mean ± SD of two independent experiments.
Jurkat cells were cultured in at 5.10+4 cells per well in flat-bottom 96-well culture dishes. […] Number of living cells was determined by quantification of adenosine triphosphate (ATP) in culture wells using the CellTiter-Glo Assay (Promega) following manufacturer's recommendations.

[3] = target: T1, recombinant human DHODH (Homo sapiens, UniProt Q02127); assay: recombinant DHODH enzymatic assay (DCIP reduction); assay type: biochemical; conditions: 25°C, DCIP reduction at 600 nm
T1 construct: N-terminally truncated (first 29 amino acids) human DHODH; made in house; host or cells: E. coli BL21(DE3)/pDIA17
T1 sequence (Q02127 29-395): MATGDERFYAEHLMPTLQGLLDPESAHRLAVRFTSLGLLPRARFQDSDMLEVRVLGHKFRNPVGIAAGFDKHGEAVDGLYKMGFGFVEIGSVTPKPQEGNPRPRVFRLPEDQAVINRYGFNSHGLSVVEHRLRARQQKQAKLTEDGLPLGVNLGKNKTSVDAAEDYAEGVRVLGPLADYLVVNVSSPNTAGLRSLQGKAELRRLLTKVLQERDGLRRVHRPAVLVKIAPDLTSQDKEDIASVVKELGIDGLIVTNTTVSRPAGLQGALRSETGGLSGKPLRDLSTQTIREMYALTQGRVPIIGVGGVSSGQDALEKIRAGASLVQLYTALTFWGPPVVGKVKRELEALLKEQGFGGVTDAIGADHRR
Protocol: Enzymatic assay DHODH activity was determined at 25°C following the reduction of DCIP at 600 nm (ε = 18,800 M^-1 cm^-1) on a spectrophotometer. […] The reaction medium used for this contained 50 mM Tris-HCl pH 8.0, 0.1% Triton X-100, 0.1 mM L-DHO, 0.025 mM CoQ1 and 0.06 mM DCIP. The reaction was started by addition of the enzyme.

Row | Compound | MIC50 ([1]; 24 h) [µM] | also measured
1 | C/C(O)=C(\C#N)C(=O)Nc1ccc(C(F)(F)F)cc1 [Teriflunomide, reference compound] |  | MIC50 [1]: 50 µM (≈ 13.5 µg/mL); IC50 [2]: ~60 µM
2 | CCc1cnc(-n2nc(OC(C)C)c(Oc3c(F)cccc3F)c2C)nc1 [example 8, 2-(4-(2,6-difluorophenoxy)-3-isopropoxy-5-methyl-1H-pyrazol-1-yl)-5-ethylpyrimidine] | 0.0005 to 0.05 (≈ 0.000187 to 0.0187 µg/mL) | IC50 [1]: 0.00066 µM; IC50 [3]: 0.013 ± 0.001 µM
3 | Cc1c(Cc2ccccc2F)c(OC(C)C)nn1-c1ncc(C2CC2)cn1 [example 10, 5-cyclopropyl-2-(4-(2-fluorobenzyl)-3-isopropoxy-5-methyl-1H-pyrazol-1-yl)pyrimidine] | 0.0005 to 0.05 (≈ 0.000183 to 0.0183 µg/mL) | IC50 [1]: 0.0011 µM; IC50 [3]: 0.013 ± 0.002 µM
4 | Cc1c(Cc2ccccc2)c(OC(C)C)nn1-c1ccc(C2CC2)cn1 [example 20, 2-(4-benzyl-3-isopropoxy-5-methyl-1H-pyrazol-1-yl)-5-cyclopropylpyridine] | 0.0005 to 0.05 (≈ 0.000174 to 0.0174 µg/mL) | IC50 [1]: 0.046 µM; IC50 [3]: 0.13 ± 0.005 µM
5 | CC(C)Oc1nn(-c2ncc(C3CC3)cn2)cc1Oc1ccccc1F [example 67, 5-cyclopropyl-2-(4-(2-fluorophenoxy)-3-isopropoxy-1H-pyrazol-1-yl)pyrimidine] | 0.0005 to 0.05 (≈ 0.000177 to 0.0177 µg/mL) | IC50 [1]: 0.015 µM; IC50 [3]: 0.048 ± 0.007 µM
6 | CCOc1nn(-c2ncc(CC)cn2)c(C)c1Oc1ccccc1Br [example 81, 2-(4-(2-bromophenoxy)-3-ethoxy-5-methyl-1H-pyrazol-1-yl)-5-ethylpyrimidine] | 0.05 to 0.5 (≈ 0.0202 to 0.202 µg/mL) | IC50 [1]: 0.124 µM; IC50 [3]: 1.15 ± 0.17 µM
7 | c1ccc(-c2ccn(-c3ncc(C4CC4)cn3)n2)cc1 [example 122, 5-cyclopropyl-2-(3-phenyl-1H-pyrazol-1-yl)pyrimidine] | 0.5 to 5 (≈ 0.131 to 1.31 µg/mL) | IC50 [1]: 3.8 µM; IC50 [3]: 22.8 ± 2.8 µM
8 | COc1cnc(-n2nc(OC(C)C)c(Oc3c(F)cccc3F)c2C)cn1 [example 173, 2-(4-(2,6-difluorophenoxy)-3-isopropoxy-5-methyl-1H-pyrazol-1-yl)-5-methoxypyrazine] | 0.5 to 5 (≈ 0.188 to 1.88 µg/mL) | 
9 | COc1ccc(-n2nc(OC(C)C)c(Oc3c(F)cccc3F)c2C)nn1 [example 174, 3-(4-(2,6-difluorophenoxy)-3-isopropoxy-5-methyl-1H-pyrazol-1-yl)-6-methoxypyridazine] | 0.05 to 0.5 (≈ 0.0188 to 0.188 µg/mL) | 
10 | CCOc1ccc(-n2nc(OC(C)C)c(Oc3c(F)cccc3F)c2C)nn1 [example 174A, 3-(4-(2,6-difluorophenoxy)-3-isopropoxy-5-methyl-1H-pyrazol-1-yl)-6-ethoxypyridazine] | 0.05 to 0.5 (≈ 0.0195 to 0.195 µg/mL) | 
11 | CCOc1nn(-c2ncc(CC)c(C)n2)c(C)c1Cc1ccccc1 [example 175, 2-(4-benzyl-3-ethoxy-5-methyl-1H-pyrazol-1-yl)-5-ethyl-4-methylpyrimidine] | 0.0005 to 0.05 (≈ 0.000168 to 0.0168 µg/mL) | 
12 | Cc1c(C(O)c2ccccc2)c(OC(C)C)nn1-c1ncc(C2CC2)cn1 (stereo not drawn) [example 176, (1-(5-cyclopropylpyrimidin-2-yl)-3-isopropoxy-5-methyl-1H-pyrazol-4-yl)(phenyl)methanol] | 0.0005 to 0.05 (≈ 0.000182 to 0.0182 µg/mL) | IC50 [1]: 0.0014 µM; IC50 [3]: 0.016 ± 0.003 µM
13 | CCOc1nn(-c2ccc(C3CC3)cn2)c(C)c1C(O)c1ccccc1 (stereo not drawn) [example 177, (1-(5-cyclopropylpyridin-2-yl)-3-ethoxy-5-methyl-1H-pyrazol-4-yl)(phenyl)methanol] | 0.0005 to 0.05 (≈ 0.000175 to 0.0175 µg/mL) | 
14 | CCOc1nn(-c2ccc(C3CC3)cn2)c(C)c1C(C)(O)c1ccccc1 (stereo not drawn) [example 178, 1-(1-(5-cyclopropylpyridin-2-yl)-3-ethoxy-5-methyl-1H-pyrazol-4-yl)-1-phenylethanol] | 0.5 to 5 (≈ 0.182 to 1.82 µg/mL) | 
15 | CC(C)Oc1nn(-c2ccc(C3CC3)cn2)cc1C(O)c1ccccc1 (stereo not drawn) [example 179, (1-(5-cyclopropylpyridin-2-yl)-3-isopropoxy-1H-pyrazol-4-yl)(phenyl)methanol] | 0.05 to 0.5 (≈ 0.0175 to 0.175 µg/mL) | 
16 | CC(C)Oc1nn(-c2ccc(C3CC3)cn2)cc1S(=O)(=O)c1ccccc1 [example 180, 5-cyclopropyl-2-(3-isopropoxy-4-(phenylsulfonyl)-1H-pyrazol-1-yl)pyridine] | 0.05 to 0.5 (≈ 0.0192 to 0.192 µg/mL) | 
17 | CC(C)Oc1nn(-c2ccc(C3CC3)cn2)cc1[S+]([O-])c1ccccc1 (stereo not drawn) [example 181, 5-cyclopropyl-2-(3-isopropoxy-4-(phenylsulfinyl)-1H-pyrazol-1-yl)pyridine] | 0.5 to 5 (≈ 0.184 to 1.84 µg/mL) | 
18 | CC(C)Oc1nn(-c2ncc(C3CC3)cn2)cc1[S+]([O-])c1ccccc1 (stereo not drawn) [example 182, 5-cyclopropyl-2-(3-isopropoxy-4-(phenylsulfinyl)-1H-pyrazol-1-yl)pyrimidine] | 0.5 to 5 (≈ 0.184 to 1.84 µg/mL) | 
19 | CC(C)Oc1nn(-c2ncc(C3CC3)cn2)cc1S(=O)(=O)c1ccccc1 [example 183, 5-cyclopropyl-2-(3-isopropoxy-4-(phenylsulfonyl)-1H-pyrazol-1-yl)pyrimidine] | 0.0005 to 0.05 (≈ 0.000192 to 0.0192 µg/mL) | 
20 | COc1cc(C2CC2)cnc1-n1cc(Oc2ccccc2)c(OC(C)C)n1 [example 184, 5-cyclopropyl-2-(3-isopropoxy-4-phenoxy-1H-pyrazol-1-yl)-3-methoxypyridine] | 0.0005 to 0.05 (≈ 0.000183 to 0.0183 µg/mL) | 
21 | COc1cc(C2CC2)cnc1-n1cc(Oc2ccccc2F)c(OC(C)C)n1 [example 185, 5-cyclopropyl-2-(4-(2-fluorophenoxy)-3-isopropoxy-1H-pyrazol-1-yl)-3-methoxypyridine] | 0.05 to 0.5 (≈ 0.0192 to 0.192 µg/mL) | 
22 | Cc1c(Oc2c(F)cccc2F)c(OC(C)C)nn1-c1ncc(C2CC2)cc1OCc1ccccc1 [example 186, 3-(benzyloxy)-5-cyclopropyl-2-(4-(2,6-difluorophenoxy)-3-isopropoxy-5-methyl-1H-pyrazol-1-yl)pyridine] | 0.05 to 0.5 (≈ 0.0246 to 0.246 µg/mL) | 
23 | Cc1c(Oc2c(F)cccc2F)c(OC(C)C)nn1-c1ncc(C2CC2)cc1O [example 187, 5-cyclopropyl-2-(4-(2,6-difluorophenoxy)-3-isopropoxy-5-methyl-1H-pyrazol-1-yl)pyridin-3-ol] | 0.0005 to 0.05 (≈ 0.000201 to 0.0201 µg/mL) | 
24 | Cc1c(Oc2c(O)cccc2F)c(OC(C)C)nn1-c1ncc(C2CC2)cc1O [example 188, 5-cyclopropyl-2-(4-(2-fluoro-6-hydroxyphenoxy)-3-isopropoxy-5-methyl-1H-pyrazol-1-yl)pyridin-3-ol] | 0.0005 to 0.05 (≈ 0.0002 to 0.02 µg/mL) | 
25 | COc1cc(C2CC2)cnc1-n1nc(OC(C)C)c(Oc2c(F)cccc2F)c1C [example 189, 5-cyclopropyl-2-(4-(2,6-difluorophenoxy)-3-isopropoxy-5-methyl-1H-pyrazol-1-yl)-3-methoxypyridine] | 0.0005 to 0.05 (≈ 0.000208 to 0.0208 µg/mL) | 
26 | Cc1c(Oc2c(F)cccc2F)c(OC(C)C)nn1-c1ncc(C2CC2)cc1N(C)C [example 190, 5-cyclopropyl-2-(4-(2,6-difluorophenoxy)-3-isopropoxy-5-methyl-1H-pyrazol-1-yl)-N,N-dimethylpyridin-3-amine] | 0.0005 to 0.05 (≈ 0.000214 to 0.0214 µg/mL) | 
27 | CCCc1cnc(-n2nc(OC(C)C)c(Oc3c(F)cccc3F)c2C)c(F)c1 [example 190A, 2-(4-(2,6-difluorophenoxy)-3-isopropoxy-5-methyl-1H-pyrazol-1-yl)-3-fluoro-5-propylpyridine] | 0.05 to 0.5 (≈ 0.0203 to 0.203 µg/mL) | 
28 | CC(C)Oc1nn(-c2ccc(C3CC3)cn2)c(Cl)c1Oc1ccccc1 [example 191, 2-(5-chloro-3-isopropoxy-4-phenoxy-1H-pyrazol-1-yl)-5-cyclopropylpyridine] | 0.05 to 0.5 (≈ 0.0185 to 0.185 µg/mL) | 
29 | CC(C)Oc1nn(-c2ncc(C3CC3)cn2)c(Cl)c1Oc1ccccc1F [example 192, 2-(5-chloro-4-(2-fluorophenoxy)-3-isopropoxy-1H-pyrazol-1-yl)-5-cyclopropylpyrimidine] | 0.0005 to 0.05 (≈ 0.000194 to 0.0194 µg/mL) | 
30 | CCc1cnc(-n2nc(OCCO)c(Cc3ccccc3)c2C)nc1 [example 193, 2-(4-benzyl-1-(5-ethylpyrimidin-2-yl)-5-methyl-1H-pyrazol-3-yloxy)ethanol] | 0.05 to 0.5 (≈ 0.0169 to 0.169 µg/mL) | 
